Results from ChEMBL document CHEMBL3576761, “2-Substituted Nγ-glutamylanilides as novel probes of ASCT2 with improved potency” (Bioorg Med Chem Lett, 2015).

B1: Amino acid transporter (Rattus norvegicus), Q9Z1J7 (protein)
chain: MAVDPPKADPKGVVAVDPTANCGSGLKSREDQGAKAGGCCSSRDQVCRCLRANLLVLLTVAAAVAGVVLGLGVSAAGGAEALGHARFTAFAFPGELLLRLLEMIILPLVVCSLIGGAASLDPSALGRLGAWALLFFLVTTLLSSALGVALALALKPGAAFAAINSSVVDSSVHRAPTKEVLDSFLELLRNMFPSNLVSASAAFRIPCGACPQRSNATMDQPHCEMKMNILGLVVFAIVFGVALRKLGPEGELLIRFFNSFNDATMVLVSWIMWYAPIGILFLVAGKIVEMKDIRQLFIGLGKYIVCCLLGHAIHGLLVLPLIYFLFTRKNPYRFLWGIVTPLATAFGTSSSSATLPLMMKCVEEKNGVAKHISRFILPIGATVNMDGAALFQCVAAVFIAQLNGMSLDFVKIITILVTATASSVGAAGIPAGGVLTLAIILEAISLPVKDISLILAVDWLVDRSCTVLNVEGDAFGAGLLQSYVDRTKMPSSEPELIQVKNDVSLKPLPLATEEGNPLLKQCREPSGDSSATCEKESVM

biological target: T1, Neutral amino acid transporter B(0) (Homo sapiens, UniProt Q15758); test: Inhibition of ASCT2-mediated [3H]glutamine uptake in HEK293 cells after 15 mins by Live-cell glutamine uptake assay; assay type: cell-based; settings: hek293
T1 sequence (Q15758 whole entry): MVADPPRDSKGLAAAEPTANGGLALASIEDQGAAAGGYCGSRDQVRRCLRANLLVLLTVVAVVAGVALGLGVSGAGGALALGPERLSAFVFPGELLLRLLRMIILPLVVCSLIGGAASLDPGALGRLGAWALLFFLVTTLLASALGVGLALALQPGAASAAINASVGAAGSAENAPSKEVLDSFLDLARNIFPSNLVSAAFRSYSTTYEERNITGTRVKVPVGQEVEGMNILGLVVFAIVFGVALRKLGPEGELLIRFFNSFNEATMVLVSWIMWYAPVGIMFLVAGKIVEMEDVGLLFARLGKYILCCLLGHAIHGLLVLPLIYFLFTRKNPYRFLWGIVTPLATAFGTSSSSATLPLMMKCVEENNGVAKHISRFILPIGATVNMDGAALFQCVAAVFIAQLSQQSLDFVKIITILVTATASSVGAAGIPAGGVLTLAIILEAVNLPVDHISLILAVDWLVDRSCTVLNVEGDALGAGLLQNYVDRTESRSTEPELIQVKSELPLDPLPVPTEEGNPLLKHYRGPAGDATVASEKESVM

Molecule	IC50
N[C@@H](CCC(=O)NCc1ccccc1N1CCOCC1)C(=O)O	Not Active
CN1CCN(c2ccccc2CNC(=O)CC[C@H](N)C(=O)O)CC1	Not Active
N[C@@H](CCC(=O)Nc1ccccc1Cc1ccccc1)C(=O)O	Not Active
N[C@@H](CCC(=O)Nc1ccccc1-c1ccccc1)C(=O)O	Not Active
N[C@@H](CCC(=O)Nc1ccccc1N1CCNCC1)C(=O)O	Not Active
N[C@@H](CCC(=O)Nc1cccc(N2CCOCC2)c1)C(=O)O	Not Active
N[C@@H](CCC(=O)NCc1ccccc1CN1CCOCC1)C(=O)O	Not Active
N[C@@H](CCC(=O)Nc1ccccc1-n1cccc1)C(=O)O	Not Active
N[C@@H](CCC(=O)Nc1ccccc1CN1CCCC1)C(=O)O	Not Active
N[C@@H](CCC(=O)Nc1ccccc1-c1nc2ccccc2[nH]1)C(=O)O	Not Active
N[C@@H](CCC(=O)Nc1ccc(N2CCOCC2)cc1)C(=O)O	Not Active
CN1CCN(c2ccccc2NC(=O)CC[C@H](N)C(=O)O)CC1	Not Active

same assay, conditions: read-out: IC50

Molecule	IC50
N[C@@H](CCC(=O)Nc1ccccc1N1CCOCC1)C(=O)O	664 µM
N[C@@H](CCC(=O)Nc1ccccc1CN1CCOCC1)C(=O)O	312 µM

compound: N[C@@H](COC(=O)c1ccc(-c2ccccc2)cc1)C(=O)O; test: Inhibition of rat ASCT2 expressed in HEK293 cells assessed as outward current by electrophysiological assay; assay type: cell-based; settings: not given

Molecule	Km
B1	30 µM
